The results in this text go back to ChEMBL document CHEMBL1201862, “PubChem BioAssay data set” (2004).

Molecules are shown by their SMILES. Calls of active or inactive are those of the source.

Among the targets are Cytochrome P450 3A4 (Homo sapiens, UniProt P08684); Cytochrome P450 2C9 (Homo sapiens, UniProt P11712); Cytochrome P450 2D6 (Homo sapiens, UniProt P10635).
In a further data set the target is T1, Estrogen receptor (Homo sapiens, UniProt P03372).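 Also: potency for inhibiting coactivator peptide recruitment to the receptor.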
T1 sequence (P03372 whole entry): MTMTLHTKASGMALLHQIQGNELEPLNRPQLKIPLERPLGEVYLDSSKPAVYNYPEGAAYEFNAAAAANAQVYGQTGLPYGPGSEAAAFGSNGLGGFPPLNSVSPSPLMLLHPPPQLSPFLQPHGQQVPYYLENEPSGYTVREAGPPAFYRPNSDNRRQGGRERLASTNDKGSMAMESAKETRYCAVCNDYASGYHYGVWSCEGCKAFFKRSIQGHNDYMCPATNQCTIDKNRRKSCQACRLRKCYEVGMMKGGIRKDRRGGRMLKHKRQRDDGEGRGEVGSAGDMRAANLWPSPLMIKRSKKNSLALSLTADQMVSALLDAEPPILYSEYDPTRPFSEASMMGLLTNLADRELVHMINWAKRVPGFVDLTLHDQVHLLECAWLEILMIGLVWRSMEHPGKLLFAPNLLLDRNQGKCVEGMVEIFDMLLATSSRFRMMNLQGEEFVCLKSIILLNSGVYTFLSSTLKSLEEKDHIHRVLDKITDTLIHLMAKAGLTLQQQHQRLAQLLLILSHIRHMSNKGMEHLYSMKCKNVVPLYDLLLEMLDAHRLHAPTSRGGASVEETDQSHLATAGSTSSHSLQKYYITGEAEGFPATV

Data set [1] is described as follows: Trypanosoma cruzi growth suppression in host cells – NIH3T3 host cells, beta-gal luminescence, confirmation (AID 2044).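 Also: intracellular parasites grown in NIH/3T3 mouse fibroblasts as host cells; luminescent beta-galactosidase reporter signal from transgenic T. cruzi replicating inside host cells; inhibitors lower the luminescence signal.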 It counts as functional, cell-based.
Data set [2] has as its target T2, RNA-binding protein pos-1 (Caenorhabditis elegans, UniProt G5EF15).
T2 sequence (G5EF15 whole entry): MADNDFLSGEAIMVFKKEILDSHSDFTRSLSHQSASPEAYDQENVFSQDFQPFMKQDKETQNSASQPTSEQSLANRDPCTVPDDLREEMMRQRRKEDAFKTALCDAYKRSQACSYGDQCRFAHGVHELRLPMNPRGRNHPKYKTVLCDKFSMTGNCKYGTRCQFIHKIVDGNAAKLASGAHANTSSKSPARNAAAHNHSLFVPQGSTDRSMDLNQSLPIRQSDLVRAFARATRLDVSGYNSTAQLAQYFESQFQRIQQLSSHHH
Put plainly: disruptors of C. elegans POS-1 RNA interaction – biochemical, fluorescence polarization, dose response (AID 1964).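 Also: purified POS-1 fused to maltose binding protein made in E. coli; potency of compounds blocking POS-1 binding to fluorescent RNA.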

The nature of data set [3]: NIH3T3 cell viability loss – ATP luminescence, mouse fibroblasts, counter-screen, dose response (AID 2010).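 Also: cells exposed to compound for about 90 hours before reading.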 It counts as functional, cell-based.
For data set [4], the target named is T3, Zinc finger protein mex-5 (Caenorhabditis elegans, UniProt Q9XUB2).
T3 sequence (Q9XUB2 whole entry): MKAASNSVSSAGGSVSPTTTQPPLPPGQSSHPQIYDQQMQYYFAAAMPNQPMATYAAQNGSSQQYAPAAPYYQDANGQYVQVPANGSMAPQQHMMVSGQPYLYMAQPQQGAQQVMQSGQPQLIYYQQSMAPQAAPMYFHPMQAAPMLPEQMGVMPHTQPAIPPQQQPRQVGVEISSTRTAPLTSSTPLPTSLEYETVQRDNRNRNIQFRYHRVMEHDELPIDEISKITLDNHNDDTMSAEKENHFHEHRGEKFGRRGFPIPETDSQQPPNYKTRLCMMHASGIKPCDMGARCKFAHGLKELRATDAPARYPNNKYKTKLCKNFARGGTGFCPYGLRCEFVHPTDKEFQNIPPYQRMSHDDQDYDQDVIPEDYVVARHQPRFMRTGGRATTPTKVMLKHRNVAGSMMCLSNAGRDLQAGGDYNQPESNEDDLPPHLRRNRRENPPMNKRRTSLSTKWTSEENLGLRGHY
Put plainly: potency of MEX-5 RNA-binding blockers – biochemical, C. elegans, fluorescence polarization, dose response (AID 1960).

The target of data set [5] is Induced myeloid leukemia cell differentiation protein Mcl-1 (Homo sapiens, UniProt Q07820). It counts as functional.
Another data set deals with Nonstructural protein 1 (Influenza A virus, UniProt Q194T2). It counts as functional, Influenza A virus (A/California/07/2009(H1N1)).
Data set [6] concerns BJ. Put plainly: BJ-TERT-LT-ST fibroblast viability loss – cell-based, RAS-independent, luminescence, dose response (AID 1935).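 Also: BJ fibroblasts immortalized with TERT plus LT and ST oncogenes.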 It counts as functional. To be noted: Homo sapiens.
The test system of data set [7] is BJ. Put plainly: BJ-TERT fibroblast viability loss – cell-based, RAS-independent, luminescence, dose response (AID 1933). It counts as functional. The following applies: Homo sapiens.
The test system of data set [8] is BJ. Briefly: cells. It counts as functional, cell-based. The following applies: Homo sapiens.
Data set [9] is described as follows: HEK-293T viability loss after treatment – luminescence, T-cell screen hits, cytotoxicity control for TCR NF-kB inhibitor project, dose response (AID 489026).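 Also: cells exposed to compound about 14 hours before the viability readout.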 It counts as functional, cell-based.
Data set [10] in a line: DRD fibroblast viability loss – cell-based, non-viral oncogenic, luminescence, dose response (AID 1934). It counts as functional. To be noted: Homo sapiens.
The target in the next data set is T4, Cytochrome P450 1A2 (Homo sapiens, UniProt P05177).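 Also: PubChem cytochrome P450 panel assay, CYP1A2 panel member.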
T4 sequence (P05177 whole entry): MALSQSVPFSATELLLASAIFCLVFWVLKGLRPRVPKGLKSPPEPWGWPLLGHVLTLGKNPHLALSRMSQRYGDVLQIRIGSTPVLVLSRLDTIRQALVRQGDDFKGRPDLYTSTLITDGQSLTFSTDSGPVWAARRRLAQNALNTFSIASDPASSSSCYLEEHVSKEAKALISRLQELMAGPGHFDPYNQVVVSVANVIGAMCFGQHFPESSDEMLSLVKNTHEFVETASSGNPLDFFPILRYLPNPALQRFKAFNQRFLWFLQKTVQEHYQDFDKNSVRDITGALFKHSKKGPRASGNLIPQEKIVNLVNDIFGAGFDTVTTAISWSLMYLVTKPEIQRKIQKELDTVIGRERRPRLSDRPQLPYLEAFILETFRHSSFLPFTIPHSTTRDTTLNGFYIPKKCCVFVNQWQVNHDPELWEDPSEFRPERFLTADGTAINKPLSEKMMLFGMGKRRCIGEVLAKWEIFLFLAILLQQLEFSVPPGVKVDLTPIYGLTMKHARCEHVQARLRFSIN

In data set [11] the target is T5, Long-chain-fatty-acid--AMP ligase FadD28 (Mycobacterium tuberculosis, UniProt P9WQ59).
T5 sequence (P9WQ59 whole entry): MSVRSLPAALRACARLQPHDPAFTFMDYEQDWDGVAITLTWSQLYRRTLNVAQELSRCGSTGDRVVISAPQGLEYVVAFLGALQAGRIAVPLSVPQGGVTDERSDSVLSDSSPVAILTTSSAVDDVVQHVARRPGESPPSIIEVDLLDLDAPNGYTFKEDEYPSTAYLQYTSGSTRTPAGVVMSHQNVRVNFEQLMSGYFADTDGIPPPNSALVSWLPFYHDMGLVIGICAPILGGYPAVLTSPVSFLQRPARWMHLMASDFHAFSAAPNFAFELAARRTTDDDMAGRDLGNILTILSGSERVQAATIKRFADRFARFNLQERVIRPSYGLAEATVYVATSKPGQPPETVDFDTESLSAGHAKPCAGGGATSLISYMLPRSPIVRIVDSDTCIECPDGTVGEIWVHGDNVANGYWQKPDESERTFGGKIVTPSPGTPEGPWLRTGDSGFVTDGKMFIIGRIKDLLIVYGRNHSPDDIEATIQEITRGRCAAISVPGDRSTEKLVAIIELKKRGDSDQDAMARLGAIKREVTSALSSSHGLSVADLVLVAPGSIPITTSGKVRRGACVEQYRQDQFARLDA
Briefly: Fluorescence polarization aasay to screen for inhibitors that compete for the binding of FadD28 to a bisubstrate Measured in Biochemical System Using Plate Reader - 2147-01_Inhibitor_Dose_CherryPick_Activity. It counts as functional, Mycobacterium tuberculosis H37Rv.

Data set [12] in a line: viability of uninfected HEp-2 cells – cell-based, HTS, cytotoxicity control for RSV inhibitor project, dose response (AID 2410). It counts as functional. To be noted: human respiratory syncytial virus.
The test system of data set [13] is Streptococcus sp. 'group A'. Briefly: Streptococcus pyogenes SK(-)GAS viability under kanamycin – luminescence, BacTiterGlo, confirmation, counter-screen for streptokinase expression inhibitor project, dose response (AID 1900). It counts as functional, organism-based.
Another data set deals with T6, Streptokinase A (Streptococcus pyogenes serotype M1, UniProt P10520).
T6 sequence (P10520 whole entry): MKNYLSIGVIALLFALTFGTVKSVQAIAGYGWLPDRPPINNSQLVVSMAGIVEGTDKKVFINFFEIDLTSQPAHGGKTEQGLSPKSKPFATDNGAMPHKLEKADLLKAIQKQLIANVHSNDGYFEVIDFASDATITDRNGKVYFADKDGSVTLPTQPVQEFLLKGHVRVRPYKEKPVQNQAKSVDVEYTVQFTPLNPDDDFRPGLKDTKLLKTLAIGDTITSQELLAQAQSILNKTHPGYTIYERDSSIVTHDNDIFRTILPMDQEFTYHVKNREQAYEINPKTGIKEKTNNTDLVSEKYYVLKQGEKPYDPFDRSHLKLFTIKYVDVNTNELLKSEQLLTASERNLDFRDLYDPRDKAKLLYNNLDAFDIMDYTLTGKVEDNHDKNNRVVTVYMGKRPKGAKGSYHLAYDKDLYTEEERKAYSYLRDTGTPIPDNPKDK
Put plainly: viability-normalized secreted streptokinase activity reduction – plasminogen activation absorbance, OD405, dose response (AID 1914).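 Also: secreted streptokinase activity via plasminogen activation per viability signal from cell pellet.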 It counts as functional, Streptococcus pyogenes M1 GAS.

The test system of the next data set is Streptococcus. Put plainly: GAS UMAA2166 growth inhibition – luminescence, BacTiterGlo, counter-screen for streptokinase expression inhibitor project, dose response (AID 1915).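 Also: potency for reduction of bacterial viability or growth.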 It counts as functional, organism-based.
Another data set deals with Cytochrome P450 2C19 (Homo sapiens, UniProt P33261). Briefly: Cytochrome panel assay with activity outcomes. Panel member name: p450-cyp2c19 Compounds with AC50 equal or less than 10 uM are considered active. It counts as functional. To be noted: read-out: AC50.
For the next data set, the system named is INS1. Briefly: INS-1E survival protection against cytokine death – cell-based, luminescence, retest, dose response (AID 449756).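 Also: cell death triggered by IL-1 beta plus TNF-alpha plus IFN-gamma mixture; protective hits raise ATP signal compared with cytokine alone wells.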 It counts as functional. To be noted: Rattus norvegicus.

Cytochrome P450 2C9, sequence (P11712 whole entry): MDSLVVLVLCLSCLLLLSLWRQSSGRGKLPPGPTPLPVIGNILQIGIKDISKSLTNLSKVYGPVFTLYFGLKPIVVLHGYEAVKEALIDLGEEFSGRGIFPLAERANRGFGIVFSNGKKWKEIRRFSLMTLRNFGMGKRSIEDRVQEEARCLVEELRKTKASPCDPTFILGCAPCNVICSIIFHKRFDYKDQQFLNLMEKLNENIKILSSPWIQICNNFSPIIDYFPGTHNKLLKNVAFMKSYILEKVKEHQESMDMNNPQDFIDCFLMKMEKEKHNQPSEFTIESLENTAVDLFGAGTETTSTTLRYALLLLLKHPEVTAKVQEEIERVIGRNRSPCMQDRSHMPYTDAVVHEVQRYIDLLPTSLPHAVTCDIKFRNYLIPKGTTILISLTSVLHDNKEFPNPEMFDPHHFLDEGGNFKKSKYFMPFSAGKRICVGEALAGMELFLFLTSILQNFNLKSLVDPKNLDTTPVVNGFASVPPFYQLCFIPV
Nonstructural protein 1, sequence (Q194T2 whole entry): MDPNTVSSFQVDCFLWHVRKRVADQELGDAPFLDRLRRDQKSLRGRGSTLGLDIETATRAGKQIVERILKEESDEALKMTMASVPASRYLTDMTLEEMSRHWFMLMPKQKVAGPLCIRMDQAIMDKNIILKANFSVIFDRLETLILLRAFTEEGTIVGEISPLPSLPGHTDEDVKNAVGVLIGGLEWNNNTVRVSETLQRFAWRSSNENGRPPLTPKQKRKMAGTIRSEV
Cytochrome P450 3A4, sequence (P08684 whole entry): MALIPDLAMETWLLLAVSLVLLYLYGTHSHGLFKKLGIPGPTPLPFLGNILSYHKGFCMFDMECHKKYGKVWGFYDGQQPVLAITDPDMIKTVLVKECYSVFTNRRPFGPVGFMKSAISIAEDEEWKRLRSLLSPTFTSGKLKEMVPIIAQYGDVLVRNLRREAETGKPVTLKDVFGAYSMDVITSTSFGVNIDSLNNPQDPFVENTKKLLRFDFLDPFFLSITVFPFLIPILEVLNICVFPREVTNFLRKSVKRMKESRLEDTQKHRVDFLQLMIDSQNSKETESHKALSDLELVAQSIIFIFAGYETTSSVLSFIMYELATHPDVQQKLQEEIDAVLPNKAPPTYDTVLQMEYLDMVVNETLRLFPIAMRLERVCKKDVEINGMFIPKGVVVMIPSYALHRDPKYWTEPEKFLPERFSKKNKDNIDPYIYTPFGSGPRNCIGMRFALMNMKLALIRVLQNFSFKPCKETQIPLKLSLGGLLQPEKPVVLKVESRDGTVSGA
Induced myeloid leukemia cell differentiation protein Mcl-1, sequence (Q07820 whole entry): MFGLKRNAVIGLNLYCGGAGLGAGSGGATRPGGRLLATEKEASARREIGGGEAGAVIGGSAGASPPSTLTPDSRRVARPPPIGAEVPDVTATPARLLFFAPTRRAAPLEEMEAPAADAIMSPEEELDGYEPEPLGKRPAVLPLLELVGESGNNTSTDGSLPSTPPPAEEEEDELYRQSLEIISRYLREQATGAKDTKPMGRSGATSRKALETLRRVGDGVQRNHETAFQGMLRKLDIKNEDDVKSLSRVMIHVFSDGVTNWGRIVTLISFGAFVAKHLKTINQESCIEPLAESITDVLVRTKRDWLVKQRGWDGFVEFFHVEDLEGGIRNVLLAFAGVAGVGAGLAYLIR
Cytochrome P450 2C19, sequence (P33261 whole entry): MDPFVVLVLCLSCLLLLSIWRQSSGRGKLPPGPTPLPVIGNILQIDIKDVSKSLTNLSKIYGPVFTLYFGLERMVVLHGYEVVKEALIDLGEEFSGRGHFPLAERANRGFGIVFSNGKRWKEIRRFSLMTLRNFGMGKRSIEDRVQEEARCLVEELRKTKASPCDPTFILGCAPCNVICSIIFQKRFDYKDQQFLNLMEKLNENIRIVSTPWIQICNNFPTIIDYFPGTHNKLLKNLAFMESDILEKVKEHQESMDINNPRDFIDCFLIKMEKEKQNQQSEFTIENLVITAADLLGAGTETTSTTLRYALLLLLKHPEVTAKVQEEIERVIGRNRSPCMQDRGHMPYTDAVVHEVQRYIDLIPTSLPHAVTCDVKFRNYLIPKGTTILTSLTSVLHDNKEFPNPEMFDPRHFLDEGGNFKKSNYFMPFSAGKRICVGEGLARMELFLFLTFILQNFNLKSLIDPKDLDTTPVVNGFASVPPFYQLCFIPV
Cytochrome P450 2D6, sequence (P10635 whole entry): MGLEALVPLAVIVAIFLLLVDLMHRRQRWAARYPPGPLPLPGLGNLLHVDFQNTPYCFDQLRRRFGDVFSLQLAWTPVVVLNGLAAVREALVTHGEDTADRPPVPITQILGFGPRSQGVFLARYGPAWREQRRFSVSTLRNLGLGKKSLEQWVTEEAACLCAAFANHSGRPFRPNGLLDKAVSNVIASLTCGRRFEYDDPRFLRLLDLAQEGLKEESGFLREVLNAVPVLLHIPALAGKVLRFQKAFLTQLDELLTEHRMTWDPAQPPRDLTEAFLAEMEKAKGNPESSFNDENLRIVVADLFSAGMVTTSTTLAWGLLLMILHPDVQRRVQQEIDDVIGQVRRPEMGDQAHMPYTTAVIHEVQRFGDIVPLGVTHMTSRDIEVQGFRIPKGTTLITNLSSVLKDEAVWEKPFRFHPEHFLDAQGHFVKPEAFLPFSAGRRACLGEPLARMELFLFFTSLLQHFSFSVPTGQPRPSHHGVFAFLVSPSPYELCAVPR

In the case of `COc1cccc2cc(-c3cn4ccc(C)cc4n3)c(=O)oc12`, the IC50 on Estrogen receptor is 7.85 µM (active).
As for `N=c1c(C(=O)NCc2ccc(F)cc2)cc2c(=O)n3ccccc3nc2n1Cc1cccnc1`, the EC50 is 1.22 µM (active) in data set [1], 31.2 µM (inconclusive) in [2], > 60 µM (not active) in [3] and 46 µM (active) in [4]. Besides, on Estrogen receptor, the IC50 was 7.04 µM (active).
For the molecule `O=C1NN(c2ccc(Cl)c(Cl)c2)C(=O)/C1=C/c1cccc(OC(=O)c2cccs2)c1`, the IC50 in data set [5] is 3.81 µM (active); against Estrogen receptor, > 50 µM (not active).
On to `COc1cc(OC)c2c(-c3ccccc3)cc(=O)oc2c1C(CCN1CCCCC1)c1ccc(N(C)C)cc1` (stereo not given), for which the IC50 on Nonstructural protein 1 is 11.9 µM (active).
For `CCOC(=O)c1[nH]c2c(c1C)C(=O)CC(c1ccco1)C2` (stereo not given), the 50% effective concentration (EC50) in the data set with BJ [6] is 0.354 µM (inconclusive); in the data set with BJ [7], 0.334 µM (active); in the data set on BJ [8], 0.594 µM (active); in [10], 0.328 µM (active). In addition, the IC50 in [5] is 6.08 µM (active); at Estrogen receptor, 30.3 µM (not active); in [9] it was > 80 µM (inactive).
`O=C(c1cccc(F)c1)N1CCC2(CC1)CCN(c1cccc(-c3ccccc3)c1)CC2`: the AC50 on Cytochrome P450 1A2 is 20 µM (inconclusive); on Cytochrome P450 3A4, “inconclusive”.
Take `O=C(NCCSCc1ccccc1)c1ccc(Cl)c(S(=O)(=O)N2CCOCC2)c1`: the AC50 in data set [11] was > 100 µM (inactive).
In the case of `O=C1NC(=S)N(C2CC2)C(=O)/C1=C/NNC(=O)c1ccccc1Cl`, the IC50 on Nonstructural protein 1 is 20.4 µM (active).
`CC(C)(C)c1nnc(NC(=O)c2cc(-c3ccccc3)nc3ccccc23)s1`: in data set [12], the CC50 is 14.1 µM (active). The results for the EC50 (in data set [13]; on Streptokinase A; with Streptococcus) were 9.69 µM (active), > 150 µM (not active) and 49.3 µM (active), respectively. The AC50 entry at Cytochrome P450 3A4 is listed as “inconclusive”.
Take `Cc1ccc(CNC(=O)C(Cc2ccccc2)NS(=O)(=O)c2ccc(Br)s2)cc1` (stereo not given): in [11], the AC50 was 6.7 µM (active).
With `O=C(c1ccc(Cl)cc1)N1CCN(c2cc(O)nnc2-c2ccccc2)CC1`, the figures for the AC50 at Cytochrome P450 2C9, on Cytochrome P450 3A4 and at Cytochrome P450 2C19 were 0.355 µM (inconclusive), “inconclusive” and 1.41 µM (inconclusive), respectively.
Regarding `CCOc1ccccc1/C=c1\sc2nc(-c3ccco3)nn2c1=O`, the IC50 on Estrogen receptor was > 50 µM (not active).
Regarding `Cc1ccc(C2C(/C=N/c3c(C)n(C)n(-c4ccccc4)c3=O)=C(c3ccccc3)Oc3ccccc32)cc1` (stereo not given), the AC50 in the data set with INS1 is 6.97 µM (active); on Cytochrome P450 2C9 it was 2.24 µM (inconclusive); on Cytochrome P450 2C19 it was 3.16 µM (inconclusive). The IC50 at Nonstructural protein 1 was > 100 µM (active).
`Cc1c(C2CCN(CCc3ccccc3)CC2)noc1-c1ccc(Cl)cc1`: the figures for the AC50 on Cytochrome P450 1A2, at Cytochrome P450 2D6 and at Cytochrome P450 3A4 were 25.1 µM (inconclusive), 1.58 µM (inconclusive) and “inconclusive”, respectively.
Regarding `Cc1cccc(C)c1NC(=O)CN1CCN(CCCC(c2ccc(F)cc2)c2ccc(F)cc2)CC1` [LIDOFLAZINE], the AC50 on Cytochrome P450 2C9 was 15.8 µM (inconclusive); at Cytochrome P450 1A2, 15.8 µM (inconclusive); at Cytochrome P450 3A4 it was “inconclusive”.
